Experimental data from PubChem BioAssay (NCI).
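Here, GI50 denotes the concentration required for 50% inhibition of growth. TGI: concentration producing complete growth inhibition.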

Experiments:
Experiment in all cases: DTP human tumour cell line panel, 384-well format
HCT-116 colon = test system: HCT-116 colon
HOP-62 NSCLC = test system: HOP-62 NSCLC
HOP-92 NSCLC = test system: HOP-92 NSCLC
IGROV1 ovarian = test system: IGROV1 ovarian
NCI-H460 NSCLC = test system: NCI-H460 NSCLC
NCI/ADR-RES ovarian = test system: NCI/ADR-RES ovarian
RPMI-8226 leukemia = test system: RPMI-8226 leukemia
SF-295 CNS = test system: SF-295 CNS
SK-OV-3 ovarian = test system: SK-OV-3 ovarian
SNB-75 CNS = test system: SNB-75 CNS
UACC-257 melanoma = test system: UACC-257 melanoma
UACC-62 melanoma = test system: UACC-62 melanoma
UO-31 renal = test system: UO-31 renal

## CC(C)(O)c1cc(Nc2cc(Oc3cn(C4CC4)nc3C3CCOCC3)ccn2)ccn1
HCT-116 colon
  GI50: 46.6 µM
  TGI: > 100 µM
HOP-62 NSCLC
  GI50: > 100 µM
  TGI: > 100 µM
HOP-92 NSCLC
  GI50: 50.7 µM
  TGI: > 100 µM
IGROV1 ovarian
  GI50: > 100 µM
  TGI: > 100 µM
NCI-H460 NSCLC
  GI50: 38.8 µM
  TGI: > 100 µM
NCI/ADR-RES ovarian
  GI50: > 100 µM
  TGI: > 100 µM
RPMI-8226 leukemia
  GI50: 45.5 µM
  TGI: > 91 µM
SF-295 CNS
  GI50: > 90 µM
  TGI: > 100 µM
SK-OV-3 ovarian
  GI50: 85.1 µM
  TGI: > 100 µM
SNB-75 CNS
  GI50: > 91.6 µM
  TGI: > 100 µM
UACC-257 melanoma
  GI50: 45 µM
  TGI: > 100 µM
UACC-62 melanoma
  GI50: 52.1 µM
  TGI: > 100 µM
UO-31 renal
  GI50: > 100 µM
  TGI: > 100 µM
